Assay results as given in patent US20250346643A1, “TROPOMYOSIN KINASE RECEPTOR (TRK) LIGANDS AS THERAPEUTICS TO SUPPORT LIVER REGENERATION” (Vanderbilt University, priority 2024, published 2025).
Where two headings read alike, the source gives them in different places.

Key:
[1] = system: liver regeneration after partial hepatectomy; assay type: in vivo, mouse
Procedure: Partial hepatectomy. All surgeries were performed per the National Institutes of Health recommendations contained in the Guide for the Care and Use of Laboratory. Mice were anesthetized with isoflurane and received preoperative extended-release buprenorphine subcutaneous (s.c.) for analgesia and eye ointment for protection. […] The evisceration of the median and left lateral lobes allowed suture ligation and ˜70% hepatectomy. Skin and abdominal muscles were closed in a two-step procedure. Mice were euthanized 1 h, 24 h, 2 days, 3 days, and 4 days after partial hepatectomy, and tissues were collected for processing. To test if recombinant NTF3 promotes liver regeneration, mice were injected intravenous (i.v.) with recombinant NTF3 (STEMCELL Technologies, Vancouver, Canada; catalog no. 78074, lot nos. 1000070683 and 1000077434) diluted in sterile 0.9% saline (0.9% NaCl) or vehicle only at approximately 1 hour prior to partial hepatectomy. Mice were then injected i.v. once per day with recombinant NTF3 or vehicle at 20 ng/g body weight until sacrifice. Lyophilized NTF3 was solubilized in 0.1% BSA/PBS (Sigma-Aldrich, St. Louis, MO; A3059) and stored at −80° C. until use.
Serum chemistry. Whole blood was collected in blood collection tubes supplemented with lithium heparin (BD vacutainer, Franklin Lakes, NJ; Cat.366664). Blood was centrifuged at 4000 g for 15 min and the plasma collected and stored at −80° C. until analysis. Plasma was analyzed on a VetScan® vs2 (Abaxis, Union City, CA) using mammalian liver profile analysis discs (Abaxis, Union City, CA; 500-0040) according to the manufacturer's instructions.
Immunohistochemistry. For immunohistochemistry, formalin-fixed paraffin-embedded (FFPE) sections were cut at a 4-μm thickness, and slides were incubated at 65° C. for 30 min. Slides were deparaffinized in Histo-Clear® (National Diagnostics, Charlotte, NC; HS2001GLL) and rehydrated by an ethanol gradient. Heat antigen retrieval was performed in 10 mM sodium citrate (pH 6.0) in a pressure cooker (Cuisinart®, CPC-600C), for 20 min at high pressure, natural pressure release for 30 min, and cooled at room temperature for 30 min. Endogenous peroxidase quenching was performed with 1.5% hydrogen peroxide (Sigma-Aldrich, St. Louis, MO; H1009) for 20 min, and slides were washed twice in PBS. Blocking was performed for 30 min with Protein Block, Serum-free (Agilent, Santa Clara, CA; X090930-2). The primary antibody was diluted in antibody diluent (Agilent, Santa Clara, CA; S080983-2) and applied to the slides in a wet chamber overnight at 4° C. After two washes in PBS, slides were incubated with the appropriate secondary antibody for 30 min, followed by two washes in PBS. […] The same reveal time was then used on all experimental slides. Slides were stained with hematoxylin (Sigma-Aldrich, St. Louis, MO; GHS332) for 30 s, washed gently in lukewarm tap water for 5 min, and washed twice in distilled water, followed by two washes in PBS (pH 7.4). Slides were washed in increasing ethanol/water gradients, followed by three washes in Histo-Clear®. Whole-slide scans for subsequent analyses and publishing were obtained using an SCN400 slide scanner (Leica, Wetzlar, Germany). Whole-slide images were processed and annotated in QuPath 0.5.1.

[2] = system: AML12 cells; assay: Cell proliferation assay (CellTiter-Glo) in AML12 cells; assay type: cell-based, mouse; conditions: NTF3 20 ng/ml, AML12 (FIG. 9E-F)
Procedure: Cell lines. Human HepG2 (ATCC HB-8065) were maintained in MEM media with 10% FBS and the mouse hepatocyte cell line AML12 (ATCC, Manassas, VA; CRL-2254) in DMEM/F12 media supplemented with dexamethasone (40 ng/ml) and Insulin-Transferrin-Selenium (Gibco, Waltham, MA; 41400045), containing 10% FBS and 1% penicillin and streptomycin. JS1 (RRID: CVCL_C7PL), LX2 (RRID: CVCL_5792, MilliporeSigma, Burlington, MA; SCC064) and TWNT4 (RRID: CVCL_W296) cells were cultured in DMEM supplemented with 10% FBS. 293T cells (ATCC, Manassas, VA; CRL-3216) were cultured in DMEM supplemented with 10% FBS.
Cell proliferation assays. Primary mouse hepatocytes, HepG2 or AML 12 cells were grown in opaque-walled 96-well plates. NTF3 (final concentration 20 ng/ml) (STEMCELL Technologies, Vancouver, Canada; cat. 78074) and/or Loxo-195 (final concentration 5 nM) (Selleckchem, Houston, TX; S8636) were added into complete growth media without L-glutamine. Primary mouse hepatocytes were also grown in serum-free William's E media without supplements. Cells were analyzed by CellTiter-Glo® (Promega G7570, Madison, WI) which detects the number of viable cells on day 0 to day 5 by on detection systems GloMax® (Promega) or Bioteck Synergy H1 (Agilent, Santa Clara, CA). Mouse recombinant HGF (Abcam, Cambridge, UK; ab281797) was added to cell culture media at a final concentration 5 ng/ml. […]

[3] = 2 days after partial hepatectomy, NTF3 20 ng/g i.v. once per day
[4] = 4 days after partial hepatectomy, NTF3 20 ng/g i.v. once per day

NTF3: neurotrophin-3, recombinant protein; HSC-derived hepatocyte mitogen, ligand of TRKA, TRKB, TRKC
liver to body weight ratio vs vehicle [1, 3]: similar
number of Ki67+ hepatocytes vs vehicle [1, 3]: significantly increased
number of Ki67+ hepatocytes vs vehicle ([1]; 4 days after partial hepatectomy): increased number
liver to body weight ratio vs controls [1, 4]: significantly increased
relative increase of liver to body weight ratio compared to controls [1, 4]: 10-23%
adverse effects ([1]; mouse, in vivo): no adverse effects
serum ALP vs vehicle ([1]; mouse, in vivo): similar
serum ALT vs vehicle ([1]; mouse, in vivo): similar
serum albumin vs vehicle ([1]; mouse, in vivo): similar
cell proliferation [2]: greatly stimulated cell proliferation
